Results as given in patent publication US20030215817A1, “Modulation of gene expression in formation of fatty atherosclerotic lesions” (priority 2003, published 2003).
Counter-ions that a name gives are not always drawn.

Columns and labels:
Assay type in all cases: in vivo, rabbit
[1] = system: REC1_28 (digital address CGGT 101) mRNA, calgizzarin; test: TOGA analysis, REC1_28
Method: (§1) To perform the studies, New Zealand male rabbits weighing 2.0-2.5 kg (Charles River, Calco, Italy) were used. The rabbits were divided into three groups and maintained in identical experimental conditions: (1) control group (n=15); rabbits fed a cholesterol-rich diet; (2) lercanidipine-treated group (n=15); rabbits fed a cholesterol-rich diet and also treated with lercanidipine (3 mg/kg/week); and (3) (R)-lercanidipine-treated group (n=5); rabbits fed a cholesterol-rich diet and also treated with the (R)-enantiomer of lercanidipine (3 mg/kg/week). After a 2 week period of subcutaneous, once a week, pretreatment with 3 mg/kg/week of lercanidipine or (R)-lercanidipine, the rabbits received a daily cholesterol supplement for up to 8 weeks or 2 weeks, respectively. In the following examples, use of the term “lercanidipine” refers to the racemic mixture of lercanidipine hydrochloride, whereas “(R)-lercanidipine” refers to the (R)-enantiomer of lercanidipine hydrochloride.
(§2) The mRNA from the above-described groups was isolated from aorta at different time points, resulting in the following mRNA samples: (1) Day 0 Control=no administered cholesterol, no lercanidipine; (2) Day 0+lercanidipine=no administered cholesterol, treatment with lercanipidine (2 weeks; 3 mg/kg/week); (3) Day 14 Control=cholesterol diet for two weeks, no lercanidipine; (4) Day 14+lercanidipine=cholesterol diet for two weeks, treatment with lercanidipine (four weeks; 3 mg/kg/week); (5) Week 8 Control=cholesterol diet for 8 weeks, no lercanidipine; and (6) Week 8+lercanidipine=cholesterol diet for 8 weeks, treatment with lercanidipine (10 weeks; 3 mg/kg/week). In addition, Day 14+(R)-lercanidipine mRNA samples were prepared from rabbits given a cholesterol diet for two weeks and treated with 3 mg/kg/week (R)-lercanidipine for four weeks.
(§3) Aorta mRNAs were prepared in the following manner. First, the aortas from each experimental group were retrieved and shredded using a polytron homogenizer. The samples were further homogenized using a teflon pestle, after which the cellular debris, nuclei, and blood cells were pelleted by centrifugation. The supernatants were extracted twice with phenol-chloroform-isoamyl alcohol and once with chloroform-isoamyl alcohol. RNA was then precipitated from the aqueous phase with ethanol. The poly A+ mRNA was prepared using standard methods of polyA selection known in the art (Schriber et al., J. Mol. Biol., 142:93-116 (1980)).
(§4) The isolated mRNA was analyzed using a method of simultaneous sequence-specific identification of mRNAs known as TOGA, described in U.S. Pat. No. 5,459,037 and U.S. Pat. No. 5,807,680, hereby incorporated herein by reference. In a preferred embodiment, the TOGA method further comprised an additional PCR step performed using a mixture of four 5′ PCR primers and cDNA templates prepared from a population of antisense cRNAs. A final PCR step that used a mixture of 256 5′ PCR primers produced PCR products that were cDNA fragments that corresponded to the 3′-region of the starting mRNA population. The produced PCR products were then identified by: (a) the initial 5′ sequence comprising the sequence remainder of the recognition site of the restriction endonuclease used to cut and isolate the 3′ region plus the sequence of the preferably four parsing bases immediately 3′ to the remainder of the recognition site, preferably the sequence of the entire fragment; and (b) the length of the fragment. These two parameters, sequence and fragment length, were used to compare the obtained PCR products to a database of known polynucleotide sequences. Since the length of the obtained PCR products includes known vector sequences at the 5′ and 3′ ends of the insert, the sequence of the insert provided in the sequence listing is shorter than the fragment length that forms part of the digital address.
(§5) The method yields Digital Sequence Tags (DSTs), that is, polynucleotides that are expressed sequence tags of the 3′ end of mRNAs. […]

[2] = system: REC1_21 (TTCC 165) mRNA, elastin gene; test: TOGA analysis, REC1_21
Method: as §1, §2, §3
as §4, with “These two parameters, sequence and fragment length, were used to compare the obtained PCR products to a database of known polynucleotide sequences. Since the length of the obtained PCR products includes known vector sequences at the 5′ and 3′ ends of the insert, the sequence of the insert provided in the sequence listing is shorter than the fragment length that forms part of the digital address.” left out

[3] = system: REC1_37 (digital address TTCA 264) mRNA, ribosomal protein L15; test: TOGA analysis, REC1_37
Method: as §1, §2, §3, §4, §5

[4] = system: REC1_7 (MspI CACA 282) mRNA; test: TOGA analysis, REC1_7
Method: as §1, §2, §3, §4, §5

[5] = system: REC1_2 (MspI AATC 108) mRNA; test: TOGA analysis, REC1_2
Method: as §1, §2, §3
as §4, with “These two parameters, sequence and fragment length, were used to compare the obtained PCR products to a database of known polynucleotide sequences. Since the length of the obtained PCR products includes known vector sequences at the 5′ and 3′ ends of the insert, the sequence of the insert provided in the sequence listing is shorter than the fragment length that forms part of the digital address.” left out

[6] = system: REC1_19 (TGTT 393) mRNA; test: TOGA analysis, REC1_19
Method: as §1, §2, §3
as §4, with “These two parameters, sequence and fragment length, were used to compare the obtained PCR products to a database of known polynucleotide sequences. Since the length of the obtained PCR products includes known vector sequences at the 5′ and 3′ ends of the insert, the sequence of the insert provided in the sequence listing is shorter than the fragment length that forms part of the digital address.” left out

[7] = system: REC1_22 (digital address TGGG 164) mRNA; test: TOGA analysis, REC1_22
Method: as §1, §2, §3, §4, §5

[8] = system: REC1_31 (digital address TGCA 210) mRNA, mitochondrial genome; test: TOGA analysis, REC1_31
Method: as §1, §2, §3, §4, §5

[9] = system: REC1_1 (MspI AAGC 288) mRNA, TYRO protein tyrosine kinase binding p; test: TOGA analysis, REC1_1
Method: as §1, §2, §3, §4, §5

[10] = system: REC1_33 (digital address CCGA 96) mRNA, as1_casein gene; test: TOGA analysis, REC1_33
Method: as §1, §2, §3, §4, §5

[11] = system: REC1_24 (digital address CCGG 232) mRNA; test: TOGA analysis, REC1_24
Method: as §1, §2, §3, §4, §5

[12] = system: REC1_34 (digital address CGGT 209) mRNA; test: TOGA analysis, REC1_34
Method: as §1, §2, §3, §4, §5

[13] = aorta at day 0: no cholesterol, 3 mg/kg/week for 2 weeks
[14] = aorta at day 14 of cholesterol diet, 3 mg/kg/week for 4 weeks
[15] = TOGA, hypercholesterolemic plus lercanidipine racemate, eight weeks, H2 (normocholesterolemic)=1.0
[16] = aorta at day 14 of cholesterol, 3 mg/kg/week for 4 weeks
[17] = aorta at day 14 of cholesterol administration, 3 mg/kg/week for 4 weeks

Compound: COC(=O)C1=C(C)NC(C)=C(C(=O)OC(C)(C)CN(C)CCC(c2ccccc2)c2ccccc2)C1c1cccc([N+](=O)[O-])c1 (racemic) [lercanidipine, lercanidipine hydrochloride]
- level of gene expression, 8 Week hypercholesterol + Lercanidipine ([1]; REC1_28 CGGT 101, rabbit aorta, 8 weeks cholesterol): 176
- level of gene expression, 14 Day hypercholesterol + Lercanidipine ([1]; REC1_28 CGGT 101, rabbit aorta, 14 days cholesterol): 189
- level of gene expression, Normal + Lercanidipine ([1]; REC1_28 CGGT 101, rabbit aorta, no cholesterol): 229
- level of gene expression of REC1_28 (TOGA) [1, 13]: 229
- level of gene expression of REC1_28 (TOGA) [1, 14]: 189
- level of gene expression, 8 Week hypercholesterol + Lercanidipine ([2]; REC1_21 TTCC 165, rabbit aorta, cholesterol 8 weeks): 486
- level of gene expression, 14 Day hypercholesterol + Lercanidipine ([2]; REC1_21 TTCC 165, rabbit aorta, cholesterol 14 days): 1507
- level of gene expression, Normal + Lercanidipine ([2]; REC1_21 TTCC 165, rabbit aorta, no cholesterol): 2064
- Relative Abundance Rec1_21, TOGA, F [2, 15]: 0.2
- level of gene expression, 8 Week hypercholesterol + Lercanidipine ([3]; REC1_37 TTCA 264, rabbit aorta, cholesterol 8 weeks): 136
- level of gene expression, 14 Day hypercholesterol + Lercanidipine ([3]; REC1_37 TTCA 264, rabbit aorta, cholesterol 14 days): 915
- level of gene expression, Normal + Lercanidipine ([3]; REC1_37 TTCA 264, rabbit aorta, no cholesterol): 605
- level of gene expression of REC1_37 (TOGA) [3, 16]: 915
- level of gene expression of REC1_37 (TOGA) ([3]; aorta at week 8 of cholesterol, 3 mg/kg/week for 10 weeks): 136
- level of gene expression (TOGA), 8 Week hypercholesterol + Lercanidipine ([4]; REC1_7, CACA 282, rabbit aorta, 8 weeks cholesterol + lercanidipine): 159
- level of gene expression (TOGA), 14 Day hypercholesterol + Lercanidipine ([4]; REC1_7, CACA 282, rabbit aorta, 14 days cholesterol + lercanidipine): 417
- level of gene expression (TOGA), Normal + Lercanidipine ([4]; REC1_7, CACA 282, rabbit aorta, no cholesterol, lercanidipine): 863
- Relative Abundance Rec1_7, TOGA, F [4, 15]: 0.2
- level of gene expression of REC1_7 (TOGA) [4, 13]: 863
- level of gene expression of REC1_7 (TOGA) [4, 17]: 417
- level of gene expression of REC1_7 (TOGA) ([4]; aorta at week 8 of cholesterol administration, 3 mg/kg/week for 10 weeks): 159
- level of gene expression (TOGA), 8 Week hypercholesterol + Lercanidipine ([5]; REC1_2, AATC 108, rabbit aorta, 8 weeks cholesterol + lercanidipine): 1143
- level of gene expression (TOGA), 14 Day hypercholesterol + Lercanidipine ([5]; REC1_2, AATC 108, rabbit aorta, 14 days cholesterol + lercanidipine): 545
- level of gene expression (TOGA), Normal + Lercanidipine ([5]; REC1_2, AATC 108, rabbit aorta, no cholesterol, lercanidipine): 301
- Relative Abundance Rec1_2, TOGA, F [5, 15]: 6.5
- level of gene expression, 8 Week hypercholesterol + Lercanidipine ([6]; REC1_19 TGTT 393, rabbit aorta, cholesterol 8 weeks): 130
- level of gene expression, 14 Day hypercholesterol + Lercanidipine ([6]; REC1_19 TGTT 393, rabbit aorta, cholesterol 14 days): 373
- level of gene expression, Normal + Lercanidipine ([6]; REC1_19 TGTT 393, rabbit aorta, no cholesterol): 569
- Relative Abundance Rec1_19, TOGA, F [6, 15]: 0.2
- level of gene expression, 8 Week hypercholesterol + Lercanidipine ([7]; REC1_22 TGGG 164, rabbit aorta, cholesterol 8 weeks): 122
- level of gene expression, 14 Day hypercholesterol + Lercanidipine ([7]; REC1_22 TGGG 164, rabbit aorta, cholesterol 14 days): 194
- level of gene expression, Normal + Lercanidipine ([7]; REC1_22 TGGG 164, rabbit aorta, no cholesterol): 87
- level of gene expression of REC1_22 (TOGA) [7, 13]: 87
- level of gene expression of REC1_22 (TOGA) [7, 17]: 194
- level of gene expression, 8 Week hypercholesterol + Lercanidipine ([8]; REC1_31 TGCA 210, rabbit aorta, cholesterol 8 weeks): 245
- level of gene expression, 14 Day hypercholesterol + Lercanidipine ([8]; REC1_31 TGCA 210, rabbit aorta, cholesterol 14 days): 619
- level of gene expression, Normal + Lercanidipine ([8]; REC1_31 TGCA 210, rabbit aorta, no cholesterol): 464
- level of gene expression of REC1_31 (TOGA) [8, 13]: 464
- level of gene expression of REC1_31 (TOGA) [8, 17]: 619
- level of gene expression (TOGA), 8 Week hypercholesterol + Lercanidipine ([9]; REC1_1, AAGC 288, rabbit aorta, 8 weeks cholesterol + lercanidipine): 1733
- level of gene expression (TOGA), 14 Day hypercholesterol + Lercanidipine ([9]; REC1_1, AAGC 288, rabbit aorta, 14 days cholesterol + lercanidipine): 753
- level of gene expression (TOGA), Normal + Lercanidipine ([9]; REC1_1, AAGC 288, rabbit aorta, no cholesterol, lercanidipine): 215
- Relative Abundance Rec1_1, TOGA, F [9, 15]: 6.9
- level of gene expression of REC1_1 (TOGA) ([9]; aorta at 8 weeks of cholesterol administration, 3 mg/kg/week for 10 weeks): 1733
- level of gene expression of REC1_1 (TOGA) [9, 13]: 215
- level of gene expression of REC1_1 (TOGA) ([9]; aorta at day 14 of cholesterol treatment, 3 mg/kg/week for 4 weeks): 753
- level of gene expression, 8 Week hypercholesterol + Lercanidipine ([10]; REC1_33 CCGA 96, rabbit aorta, 8 weeks cholesterol): 156
- level of gene expression, 14 Day hypercholesterol + Lercanidipine ([10]; REC1_33 CCGA 96, rabbit aorta, 14 days cholesterol): 842
- level of gene expression, Normal + Lercanidipine ([10]; REC1_33 CCGA 96, rabbit aorta, no cholesterol): 1094
- level of gene expression of REC1_33 (TOGA) [10, 13]: 1094
- level of gene expression of REC1_33 (TOGA) [10, 17]: 842
- level of gene expression, 8 Week hypercholesterol + Lercanidipine ([11]; REC1_24 CCGG 232, rabbit aorta, 8 weeks cholesterol): 117
- level of gene expression, 14 Day hypercholesterol + Lercanidipine ([11]; REC1_24 CCGG 232, rabbit aorta, 14 days cholesterol): 104
- level of gene expression, Normal + Lercanidipine ([11]; REC1_24 CCGG 232, rabbit aorta, no cholesterol): 122
- level of gene expression of REC1_24 (TOGA) [11, 13]: 122
- level of gene expression of REC1_24 (TOGA) [11, 14]: 104
- level of gene expression, 8 Week hypercholesterol + Lercanidipine ([12]; REC1_34 CGGT 209, rabbit aorta, 8 weeks cholesterol): 203
- level of gene expression, 14 Day hypercholesterol + Lercanidipine ([12]; REC1_34 CGGT 209, rabbit aorta, 14 days cholesterol): 331
- level of gene expression, Normal + Lercanidipine ([12]; REC1_34 CGGT 209, rabbit aorta, no cholesterol): 100
- level of gene expression of REC1_34 (TOGA) [12, 13]: 100
- level of gene expression of REC1_34 (TOGA) [12, 16]: 331
